Assay results as given in US8557873B2, “Method for treating septic shock or endotoxemia” (priority 2009, dated 2013).
“Also recorded” adds a separate entry of the source.

Columns and labels:
[1] = system: E. coli lipopolysacharide (LPS) induced septic shock/endotoxemia in male balb/c mice; assay: Survival of mice injected with E. coli LPS, treated 30 minutes later with compound i.p., observed three days; type: in vivo; conditions: for Survival rate (%) / Survival/total mice: 30 min after LPS 0.4 mg i.p., three days; for Therapeutic effect compared to the other compounds or to recombinant APC: comparison in words; for Concentration with the best therapeutic effect: concentration in 1 ml injected i.p., effect goes down above it; for Best treatment volume: per body weight of the mouse
Method: The mice used in this invention were male balb/c having body weights around 20 g, five to six weeks old. Each mouse was intraperitoneally injected with E. coli lipopolysacharide (LPS) 0.4 mg in 1 ml sterile saline. After 30 minutes, each mouse was intraperitoneally injected with one of the following compounds: amylamine, isoamylamine, 2-methylbutamine, n-methylbutamine. The above compounds were dissolved in 1 ml sterile saline to be pH 7.4. The E. coli LPS was serotype 0111:B4 obtained from Sigma (St. Louis, Mo.).
(§1) Each mouse was intraperitoneally injected with E. coli lipopolysaccharide (LPS) 0.4 mg in 1 ml saline, and was then injected with 1 ml amylamine (represented by SS1) of different concentrations (0%, 0.1%, and 0.3%) 30 minutes later. […] The therapeutic effect goes down if the dose above 0.3%. The best treatment volume of amylamine is 0.15 ml/Kg body weight of the mouse.
as §1, with “lipopolysacharide” for “lipopolysaccharide”, “and” for “and was”, “isoamylamine” for “amylamine”, “SS2)” for “SS1)”, “0.1%.” for “0.3%.”, “0.05 ml/kg” for “0.15 ml/Kg”
as §1, with “lipopolysacharide” for “lipopolysaccharide”, “and” for “and was”, “2-methylbutamine” for “amylamine”, “SS3)” for “SS1)”, “0.1%.” for “0.3%.”, “0.05 ml/kg” for “0.15 ml/Kg”
Each mouse was intraperitoneally injected with E. coli lipopolysacharide (LPS) 0.4 mg in 1 ml saline, and then 30 minutes later injected with 1 ml n-methylbutamine (represented by SS9) of different concentrations (0%, 0.1%, 0.3% and 1.0%) 30 minutes later. […] The therapeutic effect goes down if the dose above 1.0%. The best treatment volume of n-methylbutamine is 0.5 ml/kg body weight of the mouse. The dose of SS9 above 1.0% is toxic to mouse.

[2] = system: patients with severe sepsis; conditions: cited from earlier work

Molecule | Survival rate (%) ([1]; 0.1% in 1 ml i.p.) | Survival/total mice ([1]; 0.1% in 1 ml i.p.) | Survival rate (%) ([1]; 0.3% in 1 ml i.p.) | Survival/total mice ([1]; 0.3% in 1 ml i.p.) | Therapeutic effect compared to the other compounds or to recombinant APC [1] | Concentration with the best therapeutic effect [1] | Best treatment volume [1] | Survival rate (%) ([1]; 1.0% in 1 ml i.p.) | Survival/total mice ([1]; 1.0% in 1 ml i.p.) | Dose toxic to mouse ([1]; concentration in 1 ml i.p.) | Absolute decrease in mortality [2]
CCCCCN [SS1, amylamine] | 18% | 3/17 | 53% | 9/17 | higher therapeutic effects and decreased mortality over recombinant APC | 0.3% | 0.15 mL/kg | – | – | – | –
CC(C)CCN [SS2, isoamylamine] | 83% | 15/18 | 50% | 9/18 | more significant therapeutic effect; also recorded: higher therapeutic effects and decreased mortality over recombinant APC | 0.1% | 0.05 mL/kg | – | – | – | –
CCC(C)CN (centres unmarked) [SS3, 2-methylbutamine] | 53% | 16/30 | 33% | 10/30 | higher therapeutic effects and decreased mortality over recombinant APC | 0.1% | 0.05 mL/kg | – | – | – | –
CCCCNC [SS9, n-methylbutamine] | 39% | 5/13 | 54% | 7/13 | higher therapeutic effects and decreased mortality over recombinant APC | 1.0% | 0.5 mL/kg | 62% | 8/13 | above 1.0% | –
activated protein C | – | – | – | – | – | – | – | – | – | – | 6.1%
